Assay results published in patent US20100137412A1 (priority 2008, published 2010).

What was measured:
[1] = system: HIV-1 envelope pseudotypes; assay type: cell-based
[2] = system: VSV-G pseudotypes; assay type: cell-based, vesicular stomatitis virus
[3] = system: pseudotypes expressing H5HA and N1NA; assay type: cell-based, H5N1
[4] = system: H5HA and N1NA pseudotypes; assay type: cell-based, H5N1

## CCOC(=O)C1=C[C@@H](OC(CC)CC)[C@H](NC(C)=O)[C@@H](N)C1 [oseltamivir phosphate]
[1]
  effect on transduction efficiency: did not reduce
[2]
  effect on transduction efficiency: did not reduce
[3]
  effect on transduction efficiency: marked dose-dependent decrease
[4]
  effect on transduction efficiency: did not reduce
